Experimental data: the supplement of paper PMC10307832

How the values were obtained:
Experiment in all cases: relative viability (nuclei count vs DMSO), 5 days (fraction); higher = more cells survive
[1] = tested on: COR-L23
In short: (§1)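 Relative viability equals treated-well nuclei counts divided by vehicle-well nuclei counts. Counts came from 4× images of lung cancer cell lines grown in 1536-well plates for 5 days after pin-tool dosing on the day after seeding. Dosing used one drug alone or a fixed anchor-drug dose plus five library-drug doses (not always all listed) in √10 steps, and values are medians of duplicate plates.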

[2] = tested on: ChaGo-K-1
In short: as §1

[3] = tested on: EPLC-272H
In short: as §1

[4] = tested on: H3255
In short: as §1

[5] = tested on: HARA
In short: as §1

[6] = tested on: HCC-78
In short: as §1

[7] = tested on: HOP-62
In short: as §1

[8] = tested on: LCLC-97TM1
In short: as §1

[9] = tested on: LXF-289
In short: as §1

[10] = tested on: NCI-H1395
In short: as §1

[11] = tested on: NCI-H1437
In short: as §1

[12] = tested on: NCI-H1650
In short: as §1

Question: With `CCNC(=O)c1noc(-c2cc(C(C)C)c(O)cc2O)c1-c1ccc(CN2CCOCC2)cc1` [Luminespib] + O=C(CCCCCCC(=O)Nc1ccccc1)NO [Vorinostat] (partner 1 µM) as the compound, how does the relative viability ([1]; first compound 0.002 µM) read?
Answer: 0.469

Question: What about the relative viability ([1]; first compound 0.006325 µM) of the same compound?
Answer: 0.364

Question: What about the relative viability ([1]; first compound 0.02 µM) of the same compound?
Answer: 0.396

Question: What about the relative viability ([1]; first compound 0.06325 µM) of the same compound?
Answer: 0.0788

Question: What about the relative viability ([1]; first compound 0.2 µM) of the same compound?
Answer: 0.0814

Question: What about the relative viability ([2]; first compound 0.002 µM) of the same compound?
Answer: 0.678

Question: What about the relative viability ([2]; first compound 0.006325 µM) of the same compound?
Answer: 0.728

Question: What about the relative viability ([2]; first compound 0.02 µM) of the same compound?
Answer: 0.529

Question: And the relative viability ([2]; first compound 0.06325 µM)?
Answer: 0.523

Question: And the relative viability ([2]; first compound 0.2 µM)?
Answer: 0.23

Question: What about the relative viability ([3]; first compound 0.002 µM) of the same compound?
Answer: 0.402

Question: What about the relative viability ([3]; first compound 0.006325 µM) of the same compound?
Answer: 0.381

Question: What about the relative viability ([3]; first compound 0.02 µM) of the same compound?
Answer: 0.505

Question: What about the relative viability ([3]; first compound 0.06325 µM) of the same compound?
Answer: 0.0961

Question: What about the relative viability ([3]; first compound 0.2 µM) of the same compound?
Answer: 0.171

Question: What about the relative viability ([4]; first compound 0.002 µM) of the same compound?
Answer: 0.843

Question: What about the relative viability ([4]; first compound 0.02 µM) of the same compound?
Answer: 0.625

Question: And the relative viability ([4]; first compound 0.06325 µM)?
Answer: 0.745

Question: And the relative viability ([4]; first compound 0.2 µM)?
Answer: 0.248

Question: And the relative viability ([5]; first compound 0.002 µM)?
Answer: 0.51

Question: What about the relative viability ([5]; first compound 0.006325 µM) of the same compound?
Answer: 0.504

Question: What about the relative viability ([5]; first compound 0.02 µM) of the same compound?
Answer: 0.591

Question: And the relative viability ([5]; first compound 0.06325 µM)?
Answer: 0.589

Question: And the relative viability ([5]; first compound 0.2 µM)?
Answer: 0.132

Question: And the relative viability ([6]; first compound 0.002 µM)?
Answer: 0.381

Question: And the relative viability ([6]; first compound 0.006325 µM)?
Answer: 0.426

Question: And the relative viability ([6]; first compound 0.02 µM)?
Answer: 0.283

Question: What about the relative viability ([6]; first compound 0.06325 µM) of the same compound?
Answer: 0.519

Question: And the relative viability ([6]; first compound 0.2 µM)?
Answer: 0.356

Question: And the relative viability ([7]; first compound 0.002 µM)?
Answer: 0.527

Question: What about the relative viability ([7]; first compound 0.006325 µM) of the same compound?
Answer: 0.555

Question: What about the relative viability ([7]; first compound 0.02 µM) of the same compound?
Answer: 0.454

Question: What about the relative viability ([7]; first compound 0.06325 µM) of the same compound?
Answer: 0.18

Question: And the relative viability ([7]; first compound 0.2 µM)?
Answer: 0.0867

Question: And the relative viability ([8]; first compound 0.002 µM)?
Answer: 0.555

Question: And the relative viability ([8]; first compound 0.006325 µM)?
Answer: 0.545

Question: What about the relative viability ([8]; first compound 0.06325 µM) of the same compound?
Answer: 0.0694

Question: And the relative viability ([8]; first compound 0.2 µM)?
Answer: 0.0638

Question: And the relative viability ([9]; first compound 0.002 µM)?
Answer: 0.69

Question: What about the relative viability ([9]; first compound 0.006325 µM) of the same compound?
Answer: 0.707

Question: And the relative viability ([9]; first compound 0.02 µM)?
Answer: 1

Question: What about the relative viability ([9]; first compound 0.06325 µM) of the same compound?
Answer: 0.518

Question: And the relative viability ([9]; first compound 0.2 µM)?
Answer: 0.147

Question: And the relative viability ([10]; first compound 0.002 µM)?
Answer: 0.731

Question: And the relative viability ([10]; first compound 0.006325 µM)?
Answer: 0.751

Question: And the relative viability ([10]; first compound 0.02 µM)?
Answer: 0.508

Question: And the relative viability ([10]; first compound 0.06325 µM)?
Answer: 0.289

Question: What about the relative viability ([10]; first compound 0.2 µM) of the same compound?
Answer: 0.289

Question: What about the relative viability ([11]; first compound 0.002 µM) of the same compound?
Answer: 0.92

Question: What about the relative viability ([11]; first compound 0.006325 µM) of the same compound?
Answer: 0.828

Question: And the relative viability ([11]; first compound 0.02 µM)?
Answer: 0.82

Question: What about the relative viability ([11]; first compound 0.06325 µM) of the same compound?
Answer: 0.601

Question: What about the relative viability ([11]; first compound 0.2 µM) of the same compound?
Answer: 0.218

Question: What about the relative viability ([12]; first compound 0.002 µM) of the same compound?
Answer: 0.478

Question: What about the relative viability ([12]; first compound 0.006325 µM) of the same compound?
Answer: 0.516

Question: What about the relative viability ([12]; first compound 0.02 µM) of the same compound?
Answer: 0.388
